{
  "source": "the supplement of paper PMC10307832",
  "assay_in_all_cases": "relative viability (nuclei count vs DMSO), 5 days (fraction); higher = more cells survive",
  "key": {"NCI-H1563": {"tested_on": "NCI-H1563", "summary_of_the_method": "(§1)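 Lung cancer cell lines in 1536-well plates got either a single drug or a fixed anchor-drug dose together with five library-drug doses (not always all listed) in √10 steps, by pin tool, on the day after seeding. Nuclei were counted after 5 days, and relative viability is the treated-to-vehicle ratio of nuclei counts. Values are medians of duplicate plates.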"}, "PC-3 [JPC-3]": {"tested_on": "PC-3 [JPC-3]", "summary_of_the_method": "as §1"}, "EMC-BAC-2": {"tested_on": "EMC-BAC-2", "summary_of_the_method": "as §1"}, "NCI-H520": {"tested_on": "NCI-H520", "summary_of_the_method": "as §1"}, "NCI-H596": {"tested_on": "NCI-H596", "summary_of_the_method": "as §1"}, "NCI-H1666": {"tested_on": "NCI-H1666", "summary_of_the_method": "as §1"}, "NCI-H1755": {"tested_on": "NCI-H1755", "summary_of_the_method": "as §1"}, "LOU-NH91": {"tested_on": "LOU-NH91", "summary_of_the_method": "as §1"}, "NCI-H1975": {"tested_on": "NCI-H1975", "summary_of_the_method": "as §1"}, "H3255": {"tested_on": "H3255", "summary_of_the_method": "as §1"}, "ChaGo-K-1": {"tested_on": "ChaGo-K-1", "summary_of_the_method": "as §1"}, "A-427": {"tested_on": "A-427", "summary_of_the_method": "as §1"}, "COR-L 105": {"tested_on": "COR-L 105", "summary_of_the_method": "as §1"}, "NCI-H23": {"tested_on": "NCI-H23", "summary_of_the_method": "as §1"}, "EKVX": {"tested_on": "EKVX", "summary_of_the_method": "as §1"}, "HCC-366": {"tested_on": "HCC-366", "summary_of_the_method": "as §1"}, "NCI-H441": {"tested_on": "NCI-H441", "summary_of_the_method": "as §1"}, "NCI-H1734": {"tested_on": "NCI-H1734", "summary_of_the_method": "as §1"}},
  "data": [
    {"smiles": "CCN(CC)CCCCNc1ncc2cc(-c3cc(OC)cc(OC)c3)c(NC(=O)NC(C)(C)C)nc2n1", "note": "+ CC(C)C[C@H](NC(=O)[C@H](Cc1ccccc1)NC(=O)c1cnccn1)B(O)O [Bortezomib] (partner 0.002 µM)", "values": [
      {"measurement": "relative viability", "setting": "NCI-H1563; first compound 0.01 µM", "result": 0.722},
      {"measurement": "relative viability", "setting": "NCI-H1563; first compound 0.03162 µM", "result": 0.847},
      {"measurement": "relative viability", "setting": "NCI-H1563; first compound 0.1 µM", "result": 0.818},
      {"measurement": "relative viability", "setting": "NCI-H1563; first compound 0.3162 µM", "result": 0.809},
      {"measurement": "relative viability", "setting": "NCI-H1563; first compound 1 µM", "result": 0.52},
      {"measurement": "relative viability", "setting": "PC-3 [JPC-3]; first compound 0.01 µM", "result": 0.895},
      {"measurement": "relative viability", "setting": "PC-3 [JPC-3]; first compound 0.03162 µM", "result": 0.862},
      {"measurement": "relative viability", "setting": "PC-3 [JPC-3]; first compound 0.1 µM", "result": 0.972},
      {"measurement": "relative viability", "setting": "PC-3 [JPC-3]; first compound 0.3162 µM", "result": 0.966},
      {"measurement": "relative viability", "setting": "PC-3 [JPC-3]; first compound 1 µM", "result": 0.939},
      {"measurement": "relative viability", "setting": "EMC-BAC-2; first compound 0.01 µM", "result": 1.11},
      {"measurement": "relative viability", "setting": "EMC-BAC-2; first compound 0.03162 µM", "result": 1.07},
      {"measurement": "relative viability", "setting": "EMC-BAC-2; first compound 0.1 µM", "result": 1.11},
      {"measurement": "relative viability", "setting": "EMC-BAC-2; first compound 0.3162 µM", "result": 1.19},
      {"measurement": "relative viability", "setting": "EMC-BAC-2; first compound 1 µM", "result": 1.04},
      {"measurement": "relative viability", "setting": "NCI-H520; first compound 0.01 µM", "result": 0.787},
      {"measurement": "relative viability", "setting": "NCI-H520; first compound 0.03162 µM", "result": 0.442},
      {"measurement": "relative viability", "setting": "NCI-H520; first compound 0.1 µM", "result": 0.938},
      {"measurement": "relative viability", "setting": "NCI-H520; first compound 0.3162 µM", "result": 0.461},
      {"measurement": "relative viability", "setting": "NCI-H520; first compound 1 µM", "result": 0.244},
      {"measurement": "relative viability", "setting": "NCI-H596; first compound 0.01 µM", "result": 0.976},
      {"measurement": "relative viability", "setting": "NCI-H596; first compound 0.03162 µM", "result": 1.06},
      {"measurement": "relative viability", "setting": "NCI-H596; first compound 0.1 µM", "result": 1.03},
      {"measurement": "relative viability", "setting": "NCI-H596; first compound 0.3162 µM", "result": 1.16},
      {"measurement": "relative viability", "setting": "NCI-H596; first compound 1 µM", "result": 0.923},
      {"measurement": "relative viability", "setting": "NCI-H1666; first compound 0.01 µM", "result": 0.74},
      {"measurement": "relative viability", "setting": "NCI-H1666; first compound 0.03162 µM", "result": 0.848},
      {"measurement": "relative viability", "setting": "NCI-H1666; first compound 0.1 µM", "result": 0.837},
      {"measurement": "relative viability", "setting": "NCI-H1666; first compound 0.3162 µM", "result": 0.724},
      {"measurement": "relative viability", "setting": "NCI-H1666; first compound 1 µM", "result": 0.733},
      {"measurement": "relative viability", "setting": "NCI-H1755; first compound 0.01 µM", "result": 0.977},
      {"measurement": "relative viability", "setting": "NCI-H1755; first compound 0.03162 µM", "result": 0.992},
      {"measurement": "relative viability", "setting": "NCI-H1755; first compound 0.1 µM", "result": 1.01},
      {"measurement": "relative viability", "setting": "NCI-H1755; first compound 0.3162 µM", "result": 1.07},
      {"measurement": "relative viability", "setting": "NCI-H1755; first compound 1 µM", "result": 0.936},
      {"measurement": "relative viability", "setting": "LOU-NH91; first compound 0.01 µM", "result": 0.531},
      {"measurement": "relative viability", "setting": "LOU-NH91; first compound 0.03162 µM", "result": 0.49},
      {"measurement": "relative viability", "setting": "LOU-NH91; first compound 0.1 µM", "result": 0.498},
      {"measurement": "relative viability", "setting": "LOU-NH91; first compound 0.3162 µM", "result": 0.515},
      {"measurement": "relative viability", "setting": "LOU-NH91; first compound 1 µM", "result": 0.424},
      {"measurement": "relative viability", "setting": "NCI-H1975; first compound 0.01 µM", "result": 0.442},
      {"measurement": "relative viability", "setting": "NCI-H1975; first compound 0.03162 µM", "result": 0.375},
      {"measurement": "relative viability", "setting": "NCI-H1975; first compound 0.1 µM", "result": 0.394},
      {"measurement": "relative viability", "setting": "NCI-H1975; first compound 0.3162 µM", "result": 0.451},
      {"measurement": "relative viability", "setting": "NCI-H1975; first compound 1 µM", "result": 0.365},
      {"measurement": "relative viability", "setting": "H3255; first compound 0.01 µM", "result": 0.762},
      {"measurement": "relative viability", "setting": "H3255; first compound 0.03162 µM", "result": 0.773},
      {"measurement": "relative viability", "setting": "H3255; first compound 0.1 µM", "result": 1.02},
      {"measurement": "relative viability", "setting": "H3255; first compound 0.3162 µM", "result": 1.21},
      {"measurement": "relative viability", "setting": "H3255; first compound 1 µM", "result": 0.656},
      {"measurement": "relative viability", "setting": "ChaGo-K-1; first compound 0.01 µM", "result": 1.08},
      {"measurement": "relative viability", "setting": "ChaGo-K-1; first compound 0.03162 µM", "result": 1.14},
      {"measurement": "relative viability", "setting": "ChaGo-K-1; first compound 0.1 µM", "result": 1.28},
      {"measurement": "relative viability", "setting": "ChaGo-K-1; first compound 0.3162 µM", "result": 1.27},
      {"measurement": "relative viability", "setting": "ChaGo-K-1; first compound 1 µM", "result": 0.742},
      {"measurement": "relative viability", "setting": "A-427; first compound 0.01 µM", "result": 1.1},
      {"measurement": "relative viability", "setting": "A-427; first compound 0.03162 µM", "result": 0.989},
      {"measurement": "relative viability", "setting": "A-427; first compound 0.1 µM", "result": 1.12},
      {"measurement": "relative viability", "setting": "A-427; first compound 0.3162 µM", "result": 1.06},
      {"measurement": "relative viability", "setting": "A-427; first compound 1 µM", "result": 0.913},
      {"measurement": "relative viability", "setting": "COR-L 105; first compound 0.01 µM", "result": 0.691},
      {"measurement": "relative viability", "setting": "COR-L 105; first compound 0.03162 µM", "result": 0.824},
      {"measurement": "relative viability", "setting": "COR-L 105; first compound 0.1 µM", "result": 0.859},
      {"measurement": "relative viability", "setting": "COR-L 105; first compound 0.3162 µM", "result": 0.968},
      {"measurement": "relative viability", "setting": "COR-L 105; first compound 1 µM", "result": 0.732},
      {"measurement": "relative viability", "setting": "NCI-H23; first compound 0.01 µM", "result": 1.06},
      {"measurement": "relative viability", "setting": "NCI-H23; first compound 0.03162 µM", "result": 1.24},
      {"measurement": "relative viability", "setting": "NCI-H23; first compound 0.1 µM", "result": 1.09},
      {"measurement": "relative viability", "setting": "NCI-H23; first compound 0.3162 µM", "result": 1.21},
      {"measurement": "relative viability", "setting": "NCI-H23; first compound 1 µM", "result": 0.91},
      {"measurement": "relative viability", "setting": "EKVX; first compound 0.01 µM", "result": 1.15},
      {"measurement": "relative viability", "setting": "EKVX; first compound 0.03162 µM", "result": 0.957},
      {"measurement": "relative viability", "setting": "EKVX; first compound 0.1 µM", "result": 1.2},
      {"measurement": "relative viability", "setting": "EKVX; first compound 0.3162 µM", "result": 1.21},
      {"measurement": "relative viability", "setting": "EKVX; first compound 1 µM", "result": 1.1},
      {"measurement": "relative viability", "setting": "HCC-366; first compound 0.01 µM", "result": 1.09},
      {"measurement": "relative viability", "setting": "HCC-366; first compound 0.03162 µM", "result": 1.06},
      {"measurement": "relative viability", "setting": "HCC-366; first compound 0.1 µM", "result": 1.48},
      {"measurement": "relative viability", "setting": "HCC-366; first compound 0.3162 µM", "result": 1.29},
      {"measurement": "relative viability", "setting": "HCC-366; first compound 1 µM", "result": 0.968},
      {"measurement": "relative viability", "setting": "NCI-H441; first compound 0.01 µM", "result": 0.475},
      {"measurement": "relative viability", "setting": "NCI-H441; first compound 0.03162 µM", "result": 0.45},
      {"measurement": "relative viability", "setting": "NCI-H441; first compound 0.1 µM", "result": 0.817},
      {"measurement": "relative viability", "setting": "NCI-H441; first compound 0.3162 µM", "result": 0.489},
      {"measurement": "relative viability", "setting": "NCI-H441; first compound 1 µM", "result": 0.492},
      {"measurement": "relative viability", "setting": "NCI-H1734; first compound 0.01 µM", "result": 0.941},
      {"measurement": "relative viability", "setting": "NCI-H1734; first compound 0.03162 µM", "result": 0.901},
      {"measurement": "relative viability", "setting": "NCI-H1734; first compound 0.1 µM", "result": 1.11},
      {"measurement": "relative viability", "setting": "NCI-H1734; first compound 0.3162 µM", "result": 1.11},
      {"measurement": "relative viability", "setting": "NCI-H1734; first compound 1 µM", "result": 0.874}
    ]}
  ]
}
